Assay results taken from patent US20130244999A1, “Substituted Heterocyclic Compounds” (Incyte Corporation, priority 2008, published 2013).

The compounds below were run against T1, histamine H4 receptor (Homo sapiens, UniProt Q9H3N8) (assay: Inhibition of histamine H4 receptor (Table A1; H4 membrane binding assay)). Conditions: not given.
T1 construct: expressed in transfected cells; host or cells: HEK293SFM cells (membrane preparation)
In short: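 Membranes came from recombinant HEK293SFM cells expressing human H4, homogenized in 50 mM Tris-HCl pH 7.5 with protease inhibitors. Nonspecific binding was set with 1000× unlabeled ligand. Bound radioligand was separated on PEI-treated GF/B filters and counted by liquid scintillation.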

inhibition at 1 µM | SMILES
69% | CCOC(=O)Nc1ccc2c(c1)CN(c1cc(N3CCN(C)CC3)nc(N)n1)CC2 [Example 34, Ethyl {2-[2-amino-6-(4-methylpiperazin-1-yl)pyrimidin-4-yl]-1,2,3,4-tetrahydroisoquinolin-7-yl}carbamate]
66% | CN1CCN(c2cc(N3CCc4ccc(NC(=O)N5CCCCC5)cc4C3)nc(N)n2)CC1 [Example 35, N-{2-[2-Amino-6-(4-methylpiperazin-1-yl)pyrimidin-4-yl]-1,2,3,4-tetrahydroisoquinolin-7-yl}piperidine-1-carboxamide]

Same assay, conditions: histamine H4 receptor; "> a" = exceeds experiment limit

IC50 | SMILES
966 nM | CN1CCN(c2cc(N3CCc4ccc(C(=O)N5CCC(c6ccccc6)C5)cc4C3)nc(N)n2)CC1 (stereo not drawn) [Example 24, 4-(4-Methylpiperazin-1-yl)-6-[7-[(3-phenylpyrrolidin-1-yl)carbonyl]-3,4-dihydroisoquinolin-2(1H)-yl]pyrimidin-2-amine]
260 nM | CN1CCN(c2cc(N3CCc4ccc(C(=O)N(C)Cc5cccc(F)c5)cc4C3)nc(N)n2)CC1 [Example 25, 2-[2-Amino-6-(4-methylpiperazin-1-yl)pyrimidin-4-yl]-N-(3-fluorobenzyl)-N-methyl-1,2,3,4-tetrahydroisoquinoline-7-carboxamide]
244 nM | CN1CCN(c2cc(N3CCc4ccc(C(=O)N5Cc6ccccc6C5)cc4C3)nc(N)n2)CC1 [Example 26, 4-[7-(1,3-Dihydro-2H-isoindol-2-ylcarbonyl)-3,4-dihydroisoquinolin-2(1H)-yl]-6-(4-methylpiperazin-1-yl)pyrimidin-2-amine]
670 nM | CN1CCN(c2cc(N3CCc4ccc(C(=O)N(C)C)cc4C3)nc(N)n2)CC1 [Example 27, 2-[2-Amino-6-(4-methylpiperazin-1-yl)pyrimidin-4-yl]-N,N-dimethyl-1,2,3,4-tetrahydroisoquinoline-7-carboxamide]
754 nM | CN1CCN(c2cc(N3CCc4ccc(C(=O)NC5CCCC5)cc4C3)nc(N)n2)CC1 [Example 28, 2-[2-Amino-6-(4-methylpiperazin-1-yl)pyrimidin-4-yl]-N-cyclopentyl-1,2,3,4-tetrahydroisoquinoline-7-carboxamide]
229 nM | CN1CCN(c2cc(N3CCc4ccc(C(=O)N5CCCC5)cc4C3)nc(N)n2)CC1 [Example 29, 4-(4-Methylpiperazin-1-yl)-6-[7-(pyrrolidin-1-ylcarbonyl)-3,4-dihydroisoquinolin-2 (1H)-yl]pyrimidin-2-amine]
282 nM | CCOC(=O)N1CCN(c2ccc3c(c2)CN(c2cc(N4CCN(C)CC4)nc(N)n2)CC3)CC1 [Example 30, Ethyl 4-{2-[2-amino-6-(4-methylpiperazin-1-yl)pyrimidin-4-yl]-1,2,3,4-tetrahydroisoquinolin-7-yl}piperazine-1-carboxylate]
299 nM | CC(=O)N1CCN(c2ccc3c(c2)CN(c2cc(N4CCN(C)CC4)nc(N)n2)CC3)CC1 [Example 31, 4-[7-(4-Acetylpiperazin-1-yl)-3,4-dihydroisoquinolin-2 (1H)-yl]-6-(4-methylpiperazin-1-yl)pyrimidin-2-amine]
178 nM | CN1CCN(c2cc(N3CCc4ccc(N5CCN(C(=O)c6ccco6)CC5)cc4C3)nc(N)n2)CC1 [Example 32, 4-{7-[4-(2-Furoyl)piperazin-1-yl]-3,4-dihydroisoquinolin-2(1H)-yl}-6-(4-methylpiperazin-1-yl)pyrimidin-2-amine]
266 nM | CN1CCN(c2cc(N3CCc4ccc(N5CCN(C(=O)Nc6ccc(Cl)cc6)CC5)cc4C3)nc(N)n2)CC1 [Example 33, 4-{2-[2-Amino-6-(4-methylpiperazin-1-yl)pyrimidin-4-yl]-1,2,3,4-tetrahydroisoquinolin-7-yl}-N-(4-chlorophenyl)piperazine-1-carboxamide]
393 nM | CN1CCN(c2cc(N3CCc4ccc(N5CCC(C#N)CC5)cc4C3)nc(N)n2)CC1 [Example 36, 1-{2-[2-Amino-6-(4-methylpiperazin-1-yl)pyrimidin-4-yl]-1,2,3,4-tetrahydroisoquinolin-7-yl}piperidine-4-carbonitrile]
579 nM | CN1CCN(c2cc(N3CCc4ccc(N5CCC(O)(c6ccccc6)CC5)cc4C3)nc(N)n2)CC1 [Example 37, 1-{2-[2-Amino-6-(4-methylpiperazin-1-yl)pyrimidin-4-yl]-1,2,3,4-tetrahydroisoquinolin-7-yl}-4-phenylpiperidin-4-ol]
186 nM | CN1CCN(c2cc(N3CCc4ccc(N5CCC(c6ccncc6)CC5)cc4C3)nc(N)n2)CC1 [Example 38, 4-(4-Methylpiperazin-1-yl)-6-[7-(4-pyridin-4-ylpiperidin-1-yl)-3,4-dihydroisoquinolin-2(1H)-yl]pyrimidin-2-amine]
51 nM | CNC(=O)c1ccc(C2CCN(c3ccc4c(c3)CN(c3cc(N5CCN(C)CC5)nc(N)n3)CC4)CC2)cc1 [Example 39, 4-(1-{2-[2-Amino-6-(4-methylpiperazin-1-yl)pyrimidin-4-yl]-1,2,3,4-tetrahydroisoquinolin-7-yl}piperidin-4-yl)-N-methylbenzamide]
39 nM | CN1CCN(c2cc(N3CCc4ccc(N5CCC(c6ccc(C(N)=O)cc6)CC5)cc4C3)nc(N)n2)CC1 [Example 40, 4-(1-{2-[2-Amino-6-(4-methylpiperazin-1-yl)pyrimidin-4-yl]-1,2,3,4-tetrahydroisoquinolin-7-yl}piperidin-4-yl)benzamide]
38 nM | CN1CCN(c2cc(N3CCc4ccc(N5CCC(c6ccn(C)c(=O)c6)CC5)cc4C3)nc(N)n2)CC1 [Example 41, 4-(1-{2-[2-Amino-6-(4-methylpiperazin-1-yl)pyrimidin-4-yl]-1,2,3,4-tetrahydroisoquinolin-7-yl}piperidin-4-yl)-1-methylpyridin-2(1H)-one]
81 nM | CN1CCN(c2cc(N3CCc4ccc(N5CCC(c6ccc(=O)n(C)c6)CC5)cc4C3)nc(N)n2)CC1 [Example 42, 5-(1-{2-[2-Amino-6-(4-methylpiperazin-1-yl)pyrimidin-4-yl]-1,2,3,4-tetrahydroisoquinolin-7-yl}piperidin-4-yl)-1-methylpyridin-2(1H)-one]
99 nM | CN1CCN(c2cc(N3CCc4ccc(-c5ccn(C)c(=O)c5)cc4C3)nc(N)n2)CC1 [Example 43, 4-{2-[2-Amino-6-(4-methylpiperazin-1-yl)pyrimidin-4-yl]-1,2,3,4-tetrahydroisoquinolin-7-yl}-1-methylpyridin-2(1H)-one]
93 nM | CNC(=O)c1ccc(N2CCN(c3ccc4c(c3)CN(c3cc(N5CCN(C)CC5)nc(N)n3)CC4)C(=O)C2)nc1 [Example 44, 6-(4-{2-[2-Amino-6-(4-methylpiperazin-1-yl)pyrimidin-4-yl]-1,2,3,4-tetrahydroisoquinolin-7-yl}-3-oxopiperazin-1-yl)-N-methylnicotinamide]
106 nM | CNC(=O)c1ncc(-c2ccc3c(c2)CN(c2cc(N4CCN(C)CC4)nc(N)n2)CC3)cc1C [Example 45, 5-{2-[2-Amino-6-(4-methylpiperazin-1-yl)pyrimidin-4-yl]-1,2,3,4-tetrahydroisoquinolin-7-yl}-N,3-dimethylpyridine-2-carboxamide]
173 nM | Cc1cc(-c2ccc3c(c2)CN(c2cc(N4CCN(C)CC4)nc(N)n2)CC3)cnc1C(=O)N(C)C [Example 46, 5-{2-[2-Amino-6-(4-methylpiperazin-1-yl)pyrimidin-4-yl]-1,2,3,4-tetrahydroisoquinolin-7-yl}-N,N,3-trimethylpyridine-2-carboxamide]
127 nM | CNC(=O)c1csc(-c2ccc3c(c2)CN(c2cc(N4CCN(C)CC4)nc(N)n2)CC3)n1 [Example 47, 2-{2-[2-Amino-6-(4-methylpiperazin-1-yl)pyrimidin-4-yl]-1,2,3,4-tetrahydroisoquinolin-7-yl}-N-methyl-1,3-thiazole-4-carboxamide]
200 nM | CN1CCN(c2cc(N3CCc4ccc(-c5nc(C(=O)N6CCCC6)cs5)cc4C3)nc(N)n2)CC1 [Example 48, 4-(4-Methylpiperazin-1-yl)-6-[7-[4-(pyrrolidin-1-ylcarbonyl)-1,3-thiazol-2-yl]-3,4-dihydroisoquinolin-2(1H)-yl]pyrimidin-2-amine]
42 nM | CNC(=O)c1ccc(-c2ccc3c(c2)CN(c2cc(N4CCN(C)CC4)nc(N)n2)C(C)C3)cn1 (stereo not drawn) [Example 49, 5-{2-[2-Amino-6-(4-methylpiperazin-1-yl)pyrimidin-4-yl]-3-methyl-1,2,3,4-tetrahydroisoquinolin-7-yl}-N-methylpyridine-2-carboxamide]
119 nM | CC1Cc2ccc(-c3ccc(C(=O)N4CCC(N(C)C)C4)nc3)cc2CN1c1cc(N2CCN(C)CC2)nc(N)n1 (stereo not drawn) [Example 57, 4-[7-(6-{[3-(Dimethylamino)pyrrolidin-1-yl]carbonyl}pyridin-3-yl)-3-methyl-3,4-dihydroisoquinolin-2(1H)-yl]-6-(4-methylpiperazin-1-yl)pyrimidin-2-amine]
144 nM | CC1Cc2ccc(-c3ccc(C(=O)N4CCN(C)CC4)nc3)cc2CN1c1cc(N2CCN(C)CC2)nc(N)n1 (stereo not drawn) [Example 58, 4-[3-Methyl-7-{6-[(4-methylpiperazin-1-yl)carbonyl]pyridin-3-yl}-3,4-dihydroisoquinolin-2 (1H)-yl]-6-(4-methylpiperazin-1-yl)pyrimidin-2-amine]
54 nM | CC1Cc2ccc(-c3ccc(C(=O)NCCO)nc3)cc2CN1c1cc(N2CCN(C)CC2)nc(N)n1 (stereo not drawn) [Example 59, 5-{2-[2-Amino-6-(4-methylpiperazin-1-yl)pyrimidin-4-yl]-3-methyl-1,2,3,4-tetrahydroisoquinolin-7-yl}-N-(2-hydroxyethyl)pyridine-2-carboxamide]
108 nM | CNC(=O)Cn1cc(-c2ccc3c(c2)CN(c2cc(N4CCN(C)CC4)nc(N)n2)C(C)C3)cn1 (stereo not drawn) [Example 79, 2-(4-{2-[2-Amino-6-(4-methylpiperazin-1-yl)pyrimidin-4-yl]-3-methyl-1,2,3,4-tetrahydroisoquinolin-7-yl}-1H-pyrazol-1-yl)-N-methylacetamide]
